Each compound was assayed against T1, biotinylated human IL-17 (binding to IL17R/Fc) (Homo sapiens, UniProt Q16552) (assay: IL-17 competition ELISA II (captured IL17R/Fc, biotinylated IL-17)). Conditions: not given.
T1 construct: purchased R&D Systems 317-ILB (IL-17, biotinylated); 177-IR (IL17R/Fc)
T1 sequence (Q16552 20-155 limits assumed): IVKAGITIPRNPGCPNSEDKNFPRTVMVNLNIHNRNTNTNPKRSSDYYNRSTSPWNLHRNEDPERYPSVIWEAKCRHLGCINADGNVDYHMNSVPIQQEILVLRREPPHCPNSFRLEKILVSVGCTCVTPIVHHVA
How it was run: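 Anti-human IgG-coated plates captured IL17R/Fc (10 nM), then compound (5-fold dilutions from 1 μM) and biotinylated human IL-17 (20 nM stock) were added for 30 min at room temperature in PBST. Bound IL-17 detected by streptavidin-HRP/TMB at 450 nm. IC50 from 4-parameter logistic fit between no-competitor and blank controls.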

First: O=C1CC2(CCCC2)CC(=O)N[C@H](Cc2ccc(NC(=O)[C@H](Cc3ccccc3F)NC(=O)Cc3ccccc3)cc2)C(=O)NCCCC[C@@H](C(=O)O)N1 [Compound 179]
Second: CC(C)(C)[C@H](NC(=O)Cc1ccccc1)C(=O)Nc1ccc(C[C@H]2NC(=O)CC3(CCCC3)CC(=O)NCCCCCNC(=O)CNC2=O)cc1 [Compound 231]
The IC50 of the first is lower: < 100 nM for the first, 100 to 1000 nM for the second. The first is the more potent here.

These compounds were tested against T2, IL17A (Homo sapiens, UniProt Q16552) (assay: Surface Plasmon Resonance (SPR) analysis of compound interactions with IL17A). Conditions: SPR binding to IL17A.
T2 sequence (Q16552 24-155): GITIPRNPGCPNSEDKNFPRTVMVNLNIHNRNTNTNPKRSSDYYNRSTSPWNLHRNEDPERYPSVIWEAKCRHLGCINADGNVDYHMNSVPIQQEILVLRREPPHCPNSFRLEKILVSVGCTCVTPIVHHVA
Description: SPR analysis was carried out with a GE Healthcare (Piscataway, N.J.) Biacore X100 system. Typically, the chip (NTA Biacore Biosensor chip; GE Healthcare BR-1000-34) was first conditioned by injection of 0.35 M EDTA, which also served to remove any immobilized proteins from previous runs. Before immobilization of the recombinant 6-His-tagged IL17, the chip was washed with 0.5 mM nickel chloride in NTA buffer (10 mM HEPES buffer, 0.15 M sodium chloride, 10 μM ethylene diamine tetraacetic acid, 0.005% v/v surfactant P20 (GE Healthcare BR-1000-54)) to form a nickel chelate on the chip. IL17 protein was immobilized onto a NTA chip through its 6-His tag. IL17A was typically injected at 0.25 μM for 60-120 seconds, followed by a stabilization step washing with NTA+0.5% DMSO for 120 seconds or longer.
Five 2-fold or 3-fold serial dilutions of test compound were injected serially onto the chip. All steps were conducted using NTA buffer containing 0.5% v/v dimethylsulfoxide (DMSO). Compounds were diluted from stock solutions of 10 mM concentration in 100% DMSO with NTA buffer to obtain 50 μM solutions in NTA+0.5% DMSO. Subsequent 2× or 3× dilutions were made in NTA+0.5% DMSO. Compound was generally injected for 180 seconds followed by washing the chip in buffer alone for 120 seconds. The rate of refractive index change (RU units/time) and the maximum extend of RU change was measured during the “on” phase of analyte injection, followed by measuring the rate during the “off” phase.
Kinetic parameter fits were conducted using the Biacore SPR Evaluation Program (GE Healthcare) for 1:1 molecular binding fits, after subtracting the baseline average of 2 or more runs in which no analyte was injected. This program then reports the best fit average for the “on” rate (Ka), the “off” rate (Kd) and the dissociation constant (KD) (Chaiken, I et al., Anal Biochem 201, 197-210 (1992)). A separate program in the Biacore SPR Evaluation Program then calculates the best fit for Kd based upon the extent of binding alone (RU units bound) at each concentration of analyte and reports the best fit Kd by best fit to a Lineweaver-Burke plot. Typically, the Kd value calculated through both means agreed within a factor of three.
The presence and activity of IL17 on the NTA chip was routinely confirmed three ways: • 1) An increase in response units (RU) upon immobilization confirms that the IL17 was immobilized on the chip; • 2) Anti-IL17 was also injected on the chip to confirm the presence of IL17; and • 3) IL17R was injected onto the chip to confirm that the immobilized IL17 retained its binding activity for its receptor. Negative controls to access specificity for compound binding were conducted by immobilizing unrelated, but his-tagged, proteins (such as cyclophilin D) and conducting the same analysis as done with IL17A.

First: O=C1CNC(=O)[C@@H](Cc2ccc(NC(=O)[C@H](Cc3ccccc3Cl)NC(=O)c3cnccn3)cc2)NC(=O)CC2(CCCC2)CC(=O)NCCCCCN1 [Compound 200]
Second: O=C1CNC(=O)[C@@H](Cc2ccc(NC(=O)[C@H](Cc3ccccc3Cl)NC(=O)c3ccc(Cl)cc3)cc2)NC(=O)CC2(CCCC2)CC(=O)NCCCCCN1 [Compound 205]
The Kd of the first is higher: 100 to 1000 nM for the first, < 100 nM for the second.

Compared with `O=C1CCCC(=O)N[C@H](Cc2ccc(NC(=O)[C@H](Cc3ccccc3Cl)NC(=O)Cc3ccccc3)cc2)C(=O)NCC(=O)NCCCCCN1` [Compound 221], `O=C1CCNC(=O)[C@@H](Cc2ccc(NC(=O)[C@H](Cc3ccccc3Cl)NC(=O)Cc3ccccc3)cc2)NC(=O)CC2(CCCC2)CC(=O)NCCCCN1` [Compound 164] is lower in Kd: 100 to 1000 nM for the first, < 100 nM for the second. The second binds more tightly here.

`O=C1CC2(CCCC2)CC(=O)N[C@H](Cc2ccc(NC(=O)[C@H](Cc3ccccc3F)NC(=O)Cc3ccccc3)cc2)C(=O)NCCCC[C@@H](C(=O)O)N1` [Compound 179] and `COC(=O)[C@@H]1CCCCNC(=O)CCCNC(=O)[C@@H](Cc2ccc(NC(=O)[C@H](Cc3ccc(-c4ccccc4)cc3)NC(=O)Cc3ccccc3)cc2)NC(=O)CC2(CCCC2)CC(=O)N1` [Compound 124] fall in the same range of Kd: 100 to 1000 nM for the first, 100 to 1000 nM for the second.

`O=C1CNC(=O)[C@@H](Cc2ccc(NC(=O)[C@H](Cc3cccs3)NC(=O)Cc3ccccc3)cc2)NC(=O)CC2(CCCC2)CC(=O)NCCCCCN1` [Compound 228] and `O=C1CNC(=O)[C@@H](Cc2ccc(NC(=O)[C@H](Cc3ccco3)NC(=O)Cc3ccccc3)cc2)NC(=O)CC2(CCCC2)CC(=O)NCCCCCN1` [Compound 230] cannot be ordered by Kd: < 100 nM for the first, < 100 nM for the second.

`CC(C)(C)[C@H](NC(=O)Cc1ccccc1)C(=O)Nc1ccc(C[C@H]2NC(=O)CC3(CCCC3)CC(=O)NCCCCCNC(=O)CNC2=O)cc1` [Compound 231] and `O=C1CNC(=O)[C@@H](Cc2ccc(NC(=O)[C@H](Cc3cscn3)NC(=O)Cc3ccccc3)cc2)NC(=O)CC2(CCCC2)CC(=O)NCCCCCN1` [Compound 232] fall in the same range of Kd: 100 to 1000 nM for the first, 100 to 1000 nM for the second.

`O=C1CNC(=O)[C@@H](Cc2ccc(NC(=O)[C@H](Cc3cccc(Cl)c3)NC(=O)Cc3ccccc3)cc2)NC(=O)CC2(CCCC2)CC(=O)OCCCCCN1` [Compound 212] and `O=C1CNC(=O)[C@@H](Cc2ccc(NC(=O)[C@H](Cc3ccc(Cl)cc3)NC(=O)Cc3ccccc3)cc2)NC(=O)CC2(CCCC2)CC(=O)OCCCCCN1` [Compound 213] fall in the same range of Kd: 100 to 1000 nM for the first, 100 to 1000 nM for the second.

`O=C1CNC(=O)[C@@H](Cc2ccc(NC(=O)[C@H](Cc3ccccc3Cl)NC(=O)C3CCCCC3)cc2)NC(=O)CC2(CCCC2)CC(=O)NCCCCCN1` [Compound 207] and `O=C1CNC(=O)[C@@H](Cc2ccc(NC(=O)[C@H](Cc3ccccc3Cl)NC(=O)c3ccccc3F)cc2)NC(=O)CC2(CCCC2)CC(=O)NCCCCCN1` [Compound 203] cannot be ordered by Kd: < 100 nM for the first, < 100 nM for the second.

Compared with `O=C1CNC(=O)[C@@H](Cc2ccc(NC(=O)[C@H](Cc3ccc(Br)s3)NC(=O)Cc3ccccc3)cc2)NC(=O)CC2(CCCC2)CC(=O)OCCCCCN1` [Compound 225], `O=C1CNC(=O)[C@@H](Cc2ccc(NC(=O)[C@H](Cc3ccccc3Cl)NC(=O)c3cccc(O)c3)cc2)NC(=O)CC2(CCCC2)CC(=O)NCCCCCN1` [Compound 214] is lower in Kd: 100 to 1000 nM for the first, < 100 nM for the second.

For `O=C1CNC(=O)[C@@H](Cc2ccc(NC(=O)[C@H](Cc3ccc(O)cc3)NC(=O)Cc3ccc(O)cc3)cc2)NC(=O)CC2(CCCC2)CC(=O)NCCCCCN1` [Compound 189], the Kd was < 100 nM.

The compounds below were run against T3, recombinant human IL17a (binding to its receptor IL17R) (Homo sapiens, UniProt Q16552) (assay: IL-17 competition ELISA I (IL17a coated, IL17R/Fc binding)). Conditions: not given.
T3 construct: purchased R&D Systems 317-ILB (IL17a); 177-IR (IL17R/Fc)
T3 sequence (Q16552 20-155 limits assumed): T1 sequence (Q16552 20-155 limits assumed)
How it was run: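 Plates coated with 20 nM recombinant human IL17a received compound dilutions and 12 nM IL17R/Fc (final) for 30 min at room temperature. Bound receptor was detected with HRP anti-human Fc and TMB, read at 450 nm. IC50 came from a 4-parameter logistic fit between no-competitor and blank controls.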

First: O=C1CNC(=O)[C@@H](Cc2ccc(NC(=O)[C@H](Cc3ccccc3Cl)NC(=O)c3cnccn3)cc2)NC(=O)CC2(CCCC2)CC(=O)NCCCCCN1 [Compound 200]
Second: O=C1CNC(=O)[C@@H](Cc2ccc(NC(=O)[C@H](Cc3ccccc3Cl)NC(=O)c3ccc(Cl)cc3)cc2)NC(=O)CC2(CCCC2)CC(=O)NCCCCCN1 [Compound 205]
The IC50 of the first is higher: 100 to 1000 nM for the first, < 100 nM for the second.

First: O=C1CCCC(=O)N[C@H](Cc2ccc(NC(=O)[C@H](Cc3ccccc3Cl)NC(=O)Cc3ccccc3)cc2)C(=O)NCC(=O)NCCCCCN1 [Compound 221]
Second: O=C1CCNC(=O)[C@@H](Cc2ccc(NC(=O)[C@H](Cc3ccccc3Cl)NC(=O)Cc3ccccc3)cc2)NC(=O)CC2(CCCC2)CC(=O)NCCCCN1 [Compound 164]
The IC50 of the first is higher: 1000 to 10000 nM for the first, < 100 nM for the second.

`O=C1CNC(=O)[C@@H](Cc2ccc(NC(=O)[C@H](Cc3cccs3)NC(=O)Cc3ccccc3)cc2)NC(=O)CC2(CCCC2)CC(=O)NCCCCCN1` [Compound 228] and `O=C1CNC(=O)[C@@H](Cc2ccc(NC(=O)[C@H](Cc3ccco3)NC(=O)Cc3ccccc3)cc2)NC(=O)CC2(CCCC2)CC(=O)NCCCCCN1` [Compound 230] cannot be ordered by IC50: < 100 nM for the first, < 100 nM for the second.

First: O=C1CNC(=O)[C@@H](Cc2ccc(NC(=O)[C@H](Cc3cccc(Cl)c3)NC(=O)Cc3ccccc3)cc2)NC(=O)CC2(CCCC2)CC(=O)OCCCCCN1 [Compound 212]
Second: O=C1CNC(=O)[C@@H](Cc2ccc(NC(=O)[C@H](Cc3ccc(Cl)cc3)NC(=O)Cc3ccccc3)cc2)NC(=O)CC2(CCCC2)CC(=O)OCCCCCN1 [Compound 213]
The IC50 of the first is lower: 100 to 1000 nM for the first, > 10000 nM for the second.

First: O=C1CNC(=O)[C@@H](Cc2ccc(NC(=O)[C@H](Cc3ccccc3Cl)NC(=O)C3CCCCC3)cc2)NC(=O)CC2(CCCC2)CC(=O)NCCCCCN1 [Compound 207]
Second: O=C1CNC(=O)[C@@H](Cc2ccc(NC(=O)[C@H](Cc3ccccc3Cl)NC(=O)c3ccccc3F)cc2)NC(=O)CC2(CCCC2)CC(=O)NCCCCCN1 [Compound 203]
The IC50 of the first is higher: 100 to 1000 nM for the first, < 100 nM for the second. The second is the more potent here.

`O=C1CNC(=O)[C@@H](Cc2ccc(NC(=O)[C@H](Cc3cscn3)NC(=O)Cc3ccccc3)cc2)NC(=O)CC2(CCCC2)CC(=O)NCCCCCN1` [Compound 232] and `O=C1CNC(=O)[C@@H](Cc2ccc(NC(=O)[C@H](Cc3ccc(Br)s3)NC(=O)Cc3ccccc3)cc2)NC(=O)CC2(CCCC2)CC(=O)OCCCCCN1` [Compound 225] fall in the same range of IC50: 1000 to 10000 nM for the first, 1000 to 10000 nM for the second.

With `O=C1CNC(=O)[C@@H](Cc2ccc(NC(=O)[C@H](Cc3ccccc3Cl)NC(=O)c3cccc(O)c3)cc2)NC(=O)CC2(CCCC2)CC(=O)NCCCCCN1` [Compound 214] the IC50 was < 100 nM.

From patent US9284283B2, “Macrocyclic compounds for modulating IL-17” (ENSEMBLE THERAPEUTICS CORPORATION, priority 2012, dated 2016)
